Measurements: patent publication US20210181182A1, “METHOD FOR IDENTIFICATION OF PERTURBAGENS OF PARTICULAR BIOLOGICAL PROCESSES AND CELL SYSTEMS WITHIN LIVING CELLS” (priority 2018, published 2021)
Where a name gives a salt, the structure may show the parent alone. Read-outs that look alike come from different tables or passages of the source. Marks after values point to notes of the source that are not given here.

Columns and labels:
CDK = assay type: cell-based, human; conditions: HepG2, 24 h
HDAC = test: FACTORIAL assay: similarity of TFAP to the consensus HDAC inhibitor TFAP; assay type: cell-based, human; conditions: for retrieved by querying the Attagene dataset with the HDAC TFAP: HepG2, ToxCast TFAP dataset
HG19/HepG2 cells = assay type: cell-based
Method: Cell viability was evaluated by the XTT (2,3-Bis-(2-Methoxy-4-Nitro-5-Sulfophenyl)-2H-Tetrazolium-5-Carboxanilide) assay (ATCC) in HG19/HepG2 cells. As a baseline, cells are used that were treated with corresponding dilutions of the vehicle (DMSO). The viability data are an average of two replicates. The viability threshold was set at 80% viability.

HepG2 cells [1] = test: FACTORIAL assay: transition of the TFAP signature of glitazones with concentration; assay type: cell-based, human; conditions: HepG2, 24-hour treatment
HepG2 cells [2] = test: FACTORIAL assay: query of TFAPs against reference compound signatures of the Attagene TFAP database; assay type: cell-based, human; conditions: HepG2, 24 h
[3] = in humans; cited from earlier work
[4] = tested on: mitochondrial electron transport chain (mETC); test: FACTORIAL assay: similarity of TFAP to the consensus (invariant) mETC TFAP; assay type: cell-based, human
[5] = tested on: mitochondria membrane potential; conditions: HepG2, 1-hour incubation at concentrations below 60 μM; cited from earlier work
Akt kinase = test: FACTORIAL assay: similarity of TFAP to the invariant signature of Akt inhibitors; assay type: cell-based, human; conditions: for retrieved by querying the TFAP database with the invariant signature for AKT inhibitors: database of over 30,000 signatures
[6] = tested on: ubiquitin (Ub)/proteasome pathway (UPP); test: FACTORIAL assay: similarity of TFAP to the consensus UPP TFAP; assay type: cell-based, human
DNA damage = test: FACTORIAL assay: weak / strong DNA damage TFAP clusters; assay type: cell-based, human; conditions: HepG2, 24 h, all tested concentrations
[7] = HepG2, 24 h incubation, each value at the concentration [uM]

## CCc1cnn2c(NCc3ccc[n+]([O-])c3)cc(N3CCCC[C@H]3CCO)nc12 [Dinaciclib, reference compound]
CDK; over three logs of concentrations
  similarity r to the invariant signature for CDK inhibitors: > 0.85

## CC(/C=C/C(=O)NO)=C\[C@@H](C)C(=O)c1ccc(N(C)C)cc1 [trychostatin]
HDAC
  retrieved by querying the Attagene dataset with the HDAC TFAP: retrieved

## Cc1c(C)c2c(c(C)c1O)CCC(C)(COc1ccc(CC3SC(=O)NC3=O)cc1)O2 (stereo not drawn) [Troglitazone]
HG19/HepG2 cells
  cell death: caused cell death
HepG2 cells [1]
  concentration of transformation into tertiary signature: 60 µM
  concentration of transformation of primary TFAP into secondary TFAP (threshold for off-target effects): 20 µM
HepG2 cells [2]; at 60 uM
  similarity r with the TFAP for hydrogen peroxide: > 0.8
[3]
  maximum plasma concentration: 6.4 µM

## CCN(CC)c1ccc2c(-c3ccccc3C(=O)O)c3ccc(=[N+](CC)CC)cc-3oc2c1.[Cl-] [Rhodamine B]
[4]; [7]
  Pearson correlation with the mETC TFAP, r: 0.810
[5]
  MMP assay hitCall: 0

## COP(=O)(OC)O/C(=C\Cl)c1cc(Cl)c(Cl)cc1Cl [Z-Tetrachlorvinphos]
[4]; [7]
  Pearson correlation with the mETC TFAP, r: 0.892
[5]
  MMP assay hitCall: 1

## Cn1nccc1Nc1nccc(-c2ccn([C@H](CO)c3ccc(Cl)c(F)c3)c(=O)c2)n1 [GDC-0994]
HDAC; HepG2, 24 h, above 2.2 uM
  signature match at higher concentrations (HDAC inhibitors): matched the invariant signature of HDAC inhibitors

## Fc1ccc([C@@H]2CCNC[C@H]2COc2ccc3c(c2)OCO3)cc1 [paroxetine, reference compound]
Akt kinase
  retrieved by querying the TFAP database with the invariant signature for AKT inhibitors: retrieved

## CN(C)CCCN1c2ccccc2CCc2ccc(Cl)cc21 [Clomipramine hydrochloride, reference compound]
[4]; 24 h
  Pearson correlation with the mETC TFAP, r: 0.806
[5]
  MMP assay hitCall: 0*

## COC(=O)N(C(=O)N1CO[C@@]2(C(=O)OC)Cc3cc(Cl)ccc3C2=N1)c1ccc(OC(F)(F)F)cc1 [Indoxacarb]
[4]; [7]
  Pearson correlation with the mETC TFAP, r: 0.887
[5]
  MMP assay hitCall: 1

## CCc1cccc(C)c1N(C(=O)CCl)[C@@H](C)COC [S-Metolachlor]
[4]; [7]
  Pearson correlation with the mETC TFAP, r: 0.856
[5]
  MMP assay hitCall: 0

## [Cl][Cd][Cl] [cadmium chloride]
[6]
  retrieved by querying the Attagene dataset with the invariant UPP signature: retrieved

## Nc1c2c(nc3ccccc13)CCCC2 [Tacrine, reference compound]
[4]; 24 h
  Pearson correlation with the mETC TFAP, r: 0.810
[5]
  MMP assay hitCall: 0*

## triphenyltin
[6]; HepG2, ToxCast TFAP dataset
  retrieved by querying the Attagene dataset with the invariant UPP signature: retrieved

## CC(C)C(=O)O [isobutyric acid]
HDAC
  retrieved by querying the Attagene dataset with the HDAC TFAP: retrieved

## CCCCC(CC)COP(=O)(O)OCC(CC)CCCC (stereo not drawn) [Bis(2-ethylhexyl) phosphate]
[4]; [7]
  Pearson correlation with the mETC TFAP, r: 0.838
[5]
  MMP assay hitCall: 1

## COP(=S)(OC)SCn1nnc2ccccc2c1=O [Azinphos-methyl]
[4]; [7]
  Pearson correlation with the mETC TFAP, r: 0.823
[5]
  MMP assay hitCall: 0*

## Oc1ccc(Cc2ccc(O)cc2)cc1 [Bisphenol F]
[4]; [7]
  Pearson correlation with the mETC TFAP, r: 0.835
[5]
  MMP assay hitCall: 1

## CC(C)NC[C@@H](C(=O)N1CCN(c2ncnc3c2[C@H](C)C[C@H]3O)CC1)c1ccc(Cl)cc1 [GDC-0068, Ipatasertib, reference compound]
Akt kinase
  similarity r to the invariant signature of AKT inhibitors: > 0.80

## NC(=O)N/N=C/c1ccc([N+](=O)[O-])o1 [Nitrofurazone, reference compound]
[4]; 24 h
  Pearson correlation with the mETC TFAP, r: 0.856
[5]
  MMP assay hitCall: 0*

## O.O.O.O.[Na+].[O-]c1ccccc1-c1ccccc1 [Sodium 2-phenylphenate tetrahydrate]
[4]; [7]
  Pearson correlation with the mETC TFAP, r: 0.807
[5]
  MMP assay hitCall: 1

## CCO [ethanol]
Akt kinase
  retrieved by querying the TFAP database with the invariant signature for AKT inhibitors: retrieved

## CN(C)c1ccc(C(=N)c2ccc(N(C)C)cc2)cc1 [auramine, auramine O]
DNA damage
  DNA damage TFAP elicited (weak or strong damage cluster): only the strong damage TFAP

## CO/C=C(/C(=O)OC)c1ccccc1COc1cccc(C(F)(F)F)n1 [Picoxystrobin]
[4]; [7]
  Pearson correlation with the mETC TFAP, r: 0.885
[5]
  MMP assay hitCall: 1

## O=c1[nH]c(=O)n([C@H]2C[C@H](O)[C@@H](CO)O2)cc1F [floxuridine]
DNA damage
  DNA damage TFAP elicited (weak or strong damage cluster): only the weak damage TFAP

## CCC(C)(c1ccc(O)cc1)c1ccc(O)cc1 [Bisphenol B]
[4]; [7]
  Pearson correlation with the mETC TFAP, r: 0.861
[5]
  MMP assay hitCall: 1

## CCN(CC)C(=O)c1ccc(Nc2nc(OCC3CCCCC3)c3[nH]cnc3n2)cc1 [NU6140, reference compound]
HepG2 cells [2]; at 20 uM
  similarity r to the signature for a cadmium salt: 0.71
CDK
  concentration with signature similar to the invariant signature for CDK inhibitors: 6.7 µM

## CCc1ccc(CCOc2ccc(CC3SC(=O)NC3=O)cc2)nc1 (stereo not drawn) [pioglitazone]
HepG2 cells [1]
  concentration of transformation of primary TFAP into secondary TFAP (threshold for off-target effects): 180 µM

## CCc1cc(Cc2cc(CC)cc(C(C)(C)C)c2O)c(O)c(C(C)(C)C)c1
[4]; [7]
  Pearson correlation with the mETC TFAP, r: 0.827
[5]
  MMP assay hitCall: 1

## O=c1[nH]cc(F)c(=O)[nH]1 [5-fluorouracil]
DNA damage
  DNA damage TFAP elicited (weak or strong damage cluster): only the weak damage TFAP

## CC/C(=C(/CC)c1ccc(O)cc1)c1ccc(O)cc1 [Diethylstilbestrol, reference compound]
[4]; 24 h
  Pearson correlation with the mETC TFAP, r: 0.812
[5]
  MMP assay hitCall: 1

## O=S(=O)(c1ccc(Cl)cc1)c1ccc(Cl)cc1 [4,4′-Dichlorodiphenyl sulfone]
[4]; [7]
  Pearson correlation with the mETC TFAP, r: 0.810
[5]
  MMP assay hitCall: 1

## C[S+](C)[O-] [DMSO]
Akt kinase
  retrieved by querying the TFAP database with the invariant signature for AKT inhibitors: retrieved

## Bisphenol A glycidyl methacrylate
[4]; [7]
  Pearson correlation with the mETC TFAP, r: 0.939
[5]
  MMP assay hitCall: 1

## CCOC(=O)[C@@H](C)Oc1ccc(Oc2nc3ccc(Cl)cc3o2)cc1 [Fenoxaprop-P-ethyl]
[4]; [7]
  Pearson correlation with the mETC TFAP, r: 0.827
[5]
  MMP assay hitCall: 0

## N.N.[Cl][Pt][Cl] [Cisplatin, reference compound]
[4]; [7]
  Pearson correlation with the mETC TFAP, r: 0.824
HG19/HepG2 cells
  cell numbers at the end of incubation: significantly reduced cell numbers
[5]
  MMP assay hitCall: 0*
